Test results reported in patent US20040191241A1, “Antigen with haptenic mannitol epitopes and a method of preparing antibodies specific to D-mannitol” (COUNCIL OF SCIENTIFIC AND INDUSTRIAL RESEARCH, priority 2003, published 2004).
Where two headings read alike, the source gives them in different places.

Experiments:
[1] = tested on: hapten affinity-purified D-mannitol-specific antibody; assay: ELISA inhibition: specificity and cross-reactivity of the hapten affinity-purified antibody, D-mannitol-KLH coated wells; format: binding, rabbit; conditions: for Inhibition in ELISA (in words): comparison among inhibitors; for IC50: read-out: IC50 (concentration required for 50% inhibition in ELISA)
Method: FIG. 5 depicts specificity of the purified D-mannitol-specific antibody determined by ELISA inhibition. D-Mannitol-KLH conjugate (10 ng/well) was used for coating. The purified antibody (at 1:100 dilution) was preincubated with various inhibitors at different concentrations at 37° C. for 1 h before adding to the coated wells.
FIG. 6 depicts stereo specificity of the purified D-mannitol-specific antibody determined by ELISA inhibition. As L-mannitol is not available commercially, L-mannitol-BSA conjugate (prepared using L-mannose) was used as inhibitor and the inhibition was compared with that of D-mannitol-BSA conjugate.
To check for the formation of hapten-specific antibodies the antiserum was analyzed by non-competitive ELISA using the coated antigen format. The titer of the antiserum was determined by measuring the binding of serial dilutions of antiserum to coated mannitol-KLH conjugate. Flat bottom polystyrene microtiter wells were coated with mannitol-KLH conjugate at 1000, 100, 50, 10, and 1 ng per well in carbonate-bicarbonate buffer, pH 9.6 by incubating at 4° C. overnight. The wells were washed thrice between steps using PBS containing 0.05% Tween 20 (PBS-T). Blocking was done using 0.5% gelatin in PBS-T (blocking buffer) at 37° C. for 30 min. Antiserum diluted in blocking buffer (1:10, 1:100, 1:1000, 1:10000, 1:25000, 1:50000, 1:75000; 1:100000, 1:200000, 1:400000) was added (100 μL/well) and incubated at 37° C. for 2 h. Mouse anti-rabbit IgG-alkaline phoshatase secondary antibody (1:5000 dilution in blocking buffer, 100 μL/well) was added and incubated at 37° C. for 1 h. Color development was done using p-nitrophenyl phosphate (1 mg/mL, 100 μL/well) in diethanolamine buffer, pH 9.8, at 37° C. for 30 min. The reaction was stopped by adding 3 M NaOH (40 μL/well) and the absorbance at 405 nm was read in an ELISA reader.
The hapten affinity-purified D-mannitol-specific antibody was used for ELISA experiments to obtain the binding curves using D-mannitol-KLH conjugate for coating, and to study the specificity and cross-reactivity by ELISA inhibition experiments. Here, purified antibody was preincubated with various concentrations of inhibitors at 37° C. for 1 h before adding to coated microtiter wells. Other steps were as described under ‘Titration of antiserum’. Percent cross-reactivity for various inhibitors was calculated using the formula: […]

[2] = tested on: mannitol-specific mast cell-bound human IgE; assay: Skin prick test (SPT) in an allergic subject sensitized to mannitol; format: in vivo; conditions: for Wheal diameter / Flare diameter: SPT, free compounds at 0.1%; for Wheal diameter: first figure of wheal/flare; for Flare diameter: second figure of wheal/flare
Excerpt: A D-mannitol-BSA and D-mannitol-KLH conjugate was used for skin prick test (SPT) in a mannitol-allergic subject, after obtaining Institutional Ethics Committee (IEC) clearance, and informed consent. D-Mannitol and its conjugates with BSA and KLH produced positive test whereas, D-mannose and control BSA and control KLH gave negative test (Table 2). L-Mannitol BSA conjugate was negative in SPT. All these samples were negative in SPT in 10 normal subjects.

[3] = (IC50 for D-mannitol ÷ IC50 for test compound) × 100
[4] = free sugars/sugar alcohols as competitor, D-mannitol-KLH 10 ng/well coating, antibody 1:100, preincubated 37° C. 1 h

Compound: OC[C@@H](O)[C@@H](O)[C@H](O)[C@@H](O)CO [D-Glucitol]
- Percent cross-reactivity [1, 3]: 8.8%
- Percent cross-reactivity ([1]; (IC50 for D-mannitol ÷ IC50 for test compound) × 100, listed as D-glucitol (sorbitol)): ~9%
- Inhibition in ELISA (in words) [1]: higher compared to that by meso-erythritol and D-mannose
- IC50 [1, 4]: 60 mM

Compound: OC[C@@H](O)[C@@H](O)[C@H](O)[C@H](O)CO [D-Mannitol]
- Percent cross-reactivity [1, 3]: 100.0%
- Inhibition in ELISA (in words) [1]: maximum inhibition
- IC50 [1, 4]: 5.25 mM
- SPT result (positive/negative) [2]: positive
- Wheal diameter [2]: 5 mm
- Flare diameter [2]: 25 mm

Compound: O=C[C@@H](O)[C@@H](O)[C@H](O)[C@H](O)CO [D-Mannose]
- Percent cross-reactivity [1, 3]: 4.9%
- SPT result (positive/negative) [2]: negative
- Wheal diameter [2]: 1 mm
- Flare diameter [2]: 0 mm

Compound: NCCc1c[nH]cn1 [Histamine base]
- Wheal diameter [2]: 6 mm
- Flare diameter [2]: 30 mm

Compound: NCCCC[C@H](N)C(=O)O [L-lysine]
- Percent cross-reactivity [1, 3]: 2%

Compound: OCC(O)C(O)CO (stereo not drawn) [meso-Erythritol]
- Percent cross-reactivity [1, 3]: 4.9%

Compound: Control BSA: BSA incubated under the conjugation conditions, excluding D-mannose
- SPT result (positive/negative) [2]: negative
- Wheal diameter [2]: 1 mm
- Flare diameter [2]: 0 mm

Compound: N-(1-deoxy-D-mannitol-1-yl)n-carrier [D-Mannitol-BSA conjugate]
- IC50 ([1]; BSA conjugates as inhibitor (stereospecificity, FIG. 6)): 0.00064 mM
- Percent cross-reactivity ([1]; conjugate inhibitors, relative to D-mannitol-BSA conjugate): 100.00%
- SPT result (positive/negative) [2]: positive
- Wheal diameter [2]: 4 mm
- Flare diameter [2]: 30 mm

Compound: N-(1-deoxy-D-mannitol-1-yl)n-carrier [D-Mannitol-KLH conjugate]
- SPT result (positive/negative) [2]: positive
- Wheal diameter [2]: 4 mm
- Flare diameter [2]: 25 mm
